Assay results reported in patent publication EP4534147A1, “STING ANTAGONIST COMPOUNDS” (Sulis Therapeutics ApS, priority 2023, dated 2025).

Tests used:
[1] = biological target: T1, C-terminal domain (CTD) of human STING (Homo sapiens, UniProt Q86WV6); assay: STING binding TR-FRET assay (CisBio Human STING WT Binding Kit); set-up: purchased CisBio 64BDSTGPEG; conditions: recombinant human STING with His-tag, D2-labeled active site probe, 60 min at room temperature
Method: STING binding can be determined by a time-resolved FRET assay. For instance, a STING protein having a His-tag can be used. A D2-labeled active site probe can be used to accept 620 nm emission from Anti-HIS-Tb-STING. Increased fluorescence is measured at 665 nm. Molecules that compete for the probe binding site will result in a lower 665 nm signal. The assay can be performed in low-volume white 96-well plates containing 5 µL compounds in an appropriate diluent buffer. Following 60 minutes incubation at room temperature in the dark, fluorescence emission at 665 nm is measured following 330 nm xenon flash excitation. pIC50 values can be determined using a standard four parameter curve fit.
The affinity of molecules to the C-terminal domain (CTD) of human STING was determined using a commercial Human STING WT Binding Kit (CisBio, cat.# 64BDSTGPEG). In this time-resolved FRET assay, a recombinant human STING protein construct with a His-tag was employed. When bound to STING, a D2-labeled active site probe accepts the 620 nm emission from Anti-HIS-Tb-STING and an increase in fluorescence is measured at 665 nm. Molecules that compete for the probe binding site will result in a low 665 nm signal. The assay was run in CisBio low-volume white 96-well plates (catalog# 66PL96005) containing 5 µL compounds in Diluent Buffer (supplied with the CisBio kit). A solution of 1xSTING, 1x Anti-HIS-Tb and 1X D2-probe in TB detection buffer (kit supplied) was added to the plate. Plates were centrifuged for 2 min at 500 rpm, incubated for 60 min at room temperature in the dark, and then fluorescence emission at 665 nm following 330 nm xenon flash excitation on an BioTek synergy H1 multimode reader (Agilent) was measured. The plC50 values were determined using a standard four parameter curve fit in GraphPad Prism.
Target sequence in this assay (Q86WV6 135-379 limits assumed): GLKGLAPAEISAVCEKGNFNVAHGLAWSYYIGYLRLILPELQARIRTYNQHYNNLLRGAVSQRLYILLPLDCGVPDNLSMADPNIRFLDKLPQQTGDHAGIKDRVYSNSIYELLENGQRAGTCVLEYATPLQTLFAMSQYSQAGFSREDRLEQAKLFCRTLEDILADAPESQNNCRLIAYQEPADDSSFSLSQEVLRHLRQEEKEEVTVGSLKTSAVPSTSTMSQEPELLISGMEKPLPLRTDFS

[2] = biological target: T1, C-terminal domain (CTD) of human STING; assay: STING binding FP assay I (fluorescence polarization competition binding); set-up: recombinant human STING protein (155-379); conditions: recombinant human STING protein (155-379), 35 nM STING, 4 nM fluorescein-labelled STING ligand (Probe 1), 20 min at room temperature
Method: The interaction between molecules and the C-terminal domain (CTD) of human STING was evaluated using a competition binding assay. In this assay, recombinant human STING protein (155-379) and a STING binding fluorescent probe were employed. Upon binding of the probe to STING, the rotation of the fluorescent probe is slowed due to the larger molecular size of the protein-bound complex. As a result, emitted light retains its plane of polarization, leading to an increase in fluorescence polarization. Molecules competing for the probe binding site displace the probe, which leads to rapid randomization of the polarization plane of the emitted light and a subsequent decrease in measured fluorescence polarization signal. Change in polarization was measured, allowing a comparative evaluation of the binding affinities of different compounds to the target protein.
The assay was performed in 96-well plates (ThermoFisher, cat.# 237108) containing 100 µl : 10 µL test compound in 10% DMSO and buffer A (150 mM NaCl, 50 mM HEPES pH 7.5, 1 mM DTT) + 90 µL prepared master mix solution of: 4 nM fluorescein-labelled STING ligand (Probe 1; synthesis described above) in buffer A + 0.055% Tween-20 (v/v) and 35 nM STING in buffer A. Post mixing, plates were agitated at 600 rpm and incubated for 20 min at room temperature. Subsequent measurements of the fluorescence polarization signal were made on a BioTek Synergy-H1 plate reader, using a polarization filter; excitation: 485/20 nm, emission: 528/20 nm) with a gain-setting of 75. IC50 values were determined using a standard non-linear regression four-parameter curve fit in Graphpad Prism.
Target sequence in this assay (Q86WV6 155-379): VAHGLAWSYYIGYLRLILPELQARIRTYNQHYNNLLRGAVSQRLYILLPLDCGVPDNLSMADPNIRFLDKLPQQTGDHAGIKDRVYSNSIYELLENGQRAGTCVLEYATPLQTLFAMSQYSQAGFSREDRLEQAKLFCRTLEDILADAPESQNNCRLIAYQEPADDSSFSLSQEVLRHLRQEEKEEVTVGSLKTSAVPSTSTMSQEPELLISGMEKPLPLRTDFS

STING = biological target: T2, STING (Homo sapiens, UniProt Q86WV6); assay: Human FB STING antagonist assay (IFN-a/b release); assay type: cell-based; conditions: Human skin fibroblasts, 2h pre-treatment, 300 nM GSK STING agonist (CAS number: 2138299-34-8) for 20 h, release of IFN-a/b by HEK-Blue IFN-α/β bioassay
T2 construct: endogenous in cells; host or cells: human skin fibroblasts
T2 sequence (Q86WV6 whole entry): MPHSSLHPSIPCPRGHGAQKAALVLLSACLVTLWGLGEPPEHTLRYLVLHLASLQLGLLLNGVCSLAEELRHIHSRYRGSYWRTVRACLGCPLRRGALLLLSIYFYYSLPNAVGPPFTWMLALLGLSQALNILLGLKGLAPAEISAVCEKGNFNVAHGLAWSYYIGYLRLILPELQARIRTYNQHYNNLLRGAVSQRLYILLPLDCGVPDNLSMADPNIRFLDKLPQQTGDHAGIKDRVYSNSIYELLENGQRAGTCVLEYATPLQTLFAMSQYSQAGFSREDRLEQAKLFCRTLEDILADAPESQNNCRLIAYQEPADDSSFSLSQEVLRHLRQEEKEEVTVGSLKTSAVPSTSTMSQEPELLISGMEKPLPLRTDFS
Method: STING antagonist activity can be determined by a human fibroblast antagonist assay. For this, human skin fibroblasts are pre-treated for 2h with a serial dilution of the compound, and are then stimulated for 20 hours with 300 nM STING agonist (e.g. from GSK, CAS number: 2138299-34-8). Supernatants are then harvested and assessed for IFN-a/b release, which indicates STING activation. IFN-a/b concentration in the supernatant is determined, e.g. using an IFN-α/β bioassay. IC50 values are calculated using a non-linear regression fitting, variable slope (4 parameters).
Human skin fibroblasts were pre-treated for 2h with a serial dilution of test compound followed by stimulation with mock or 300 nM GSK STING agonist (CAS number: 2138299-34-8). Supernatants were harvested after 20 h of STING agonist stimulation. Release of IFN-a/b was determined using HEK-Blue IFN-α/β bioassay (Invivogen). Cellular viability was assessed using Alamar Blue HS assay. IC50 values were estimated using a non-linear regression fitting, variable slope (4 parameters) in GraphPad Prism 9.3.1.

CCn1nc(C)cc1C(=O)N=c1n(C)c2cc(C(N)=O)ccc2n1CCC(CCn1c(=NC(=O)c2cc(C)nn2CC)n(C)c2cc(C(N)=O)ccc21)OCC(=O)O (stereo not shown) [Example 3, (3-{5-Carbamoyl-2-[(1-ethyl-3-methyl-5-pyrazolyl)carbonylimino]-3-methyl-2,3-dihydro-1H-1,3-benzimidazol-1-yl}-1-(2-{5-carbamoyl-2-[(1-ethyl-3-methyl-5-pyrazolyl)carbonylimino]-3-methyl-2,3-dihydro-1H-1,3-benzimidazol-1-yl}ethyl)propoxy)acetic acid]
IC50 [1]: 0.452 nM
IC50 [2]: < 30 nM

CCn1nc(C)cc1C(=O)N=c1n(C)c2cc(C(N)=O)ccc2n1CCC(CCn1c(=NC(=O)c2cc(C)nn2CC)n(C)c2cc(C(N)=O)ccc21)OCC(=O)NC(C)C (stereo not shown) [Example 5, 1-{3-[(N-lsopropylcarbamoyl)methoxy]-5-{5-carbamoyl-2-[(1-ethyl-3-methyl-5-pyrazolyl)carbonylimino]-3-methyl-2,3-dihydro-1H-1,3-benzimidazol-1-yl}pentyl}-2-[(1-ethyl-3-methyl-5-pyrazolyl)carbonylimino]-3-methyl-2,3-dihydro-1H-1,3-benzimidazole-5-carboxamide]
IC50 [1]: 0.38 nM
IC50 [2]: < 30 nM

CCn1nc(C)cc1C(=O)N=c1n(C)c2cc(C(N)=O)ccc2n1CCC(CCn1c(=NC(=O)c2cc(C)nn2CC)n(C)c2cc(C(N)=O)ccc21)OCC(=O)Nc1ccccc1 (stereo not shown) [Example 6, 1-{3-[(N-Phenylcarbamoyl)methoxy]-5-{5-carbamoyl-2-[(1-ethyl-3-methyl-5-pyrazolyl)carbonylimino]-3-methyl-2,3-dihydro-1H-1,3-benzimidazol-1-yl}pentyl}-2-[(1-ethyl-3-methyl-5-pyrazolyl)carbonylimino]-3-methyl-2,3-dihydro-1H-1,3-benzimidazole-5-carboxamide]
IC50 (STING): 7600 nM
IC50 [1]: 0.6 nM
IC50 [2]: < 30 nM

CCn1nc(C)cc1C(=O)N=c1n(C)c2cc(C(N)=O)ccc2n1CCC(CCn1c(=NC(=O)c2cc(C)nn2CC)n(C)c2cc(C(N)=O)ccc21)OCC(=O)N1CCOCC1 (stereo not shown) [Example 7, 1-(5-{5-Carbamoyl-2-[(1-ethyl-3-methyl-5-pyrazolyl)carbonylimino]-3-methyl-2,3-dihydro-1H-1,3-benzimidazol-1-yl}-3-(2-morpholino-2-oxoethoxy)pentyl)-2-[(1-ethyl-3-methyl-5-pyrazolyl)carbonylimino]-3-methyl-2,3-dihydro-1H-1,3-benzimidazole-5-carboxamide]
IC50 (STING): 3500 nM
IC50 [1]: 0.267 nM
IC50 [2]: < 30 nM

CCn1nc(C)cc1C(=O)N=c1n(C)c2cc(C(N)=O)ccc2n1CCC(CCn1c(=NC(=O)c2cc(C)nn2CC)n(C)c2cc(C(N)=O)ccc21)OCC(=O)N1CCc2cc(OC)ccc2C1 (stereo not shown) [Example 9, 1-(5-{5-Carbamoyl-2-[(1-ethyl-3-methyl-5-pyrazolyl)carbonylimino]-3-methyl-2,3-dihydro-1H-1,3-benzimidazol-1-yl}-3-[2-(6-methoxy-1,2,3,4-tetrahydro-2-isoquinolyl)-2-oxoethoxy]pentyl)-2-[(1-ethyl-3-methyl-5-pyrazolyl)carbonylimino]-3-methyl-2,3-dihydro-1H-1 ,3-benzimidazole-5-carboxamide]
IC50 (STING): 13100 nM
IC50 [1]: 0.665 nM
IC50 [2]: < 30 nM
